Reference: patent US12448363B2, “Kinase inhibitors” (Vidya Therapeutics, Inc., priority 2020, dated 2025)

The compounds below were run on BTK Activity in RAMOS B Cells (assay: Assay to determine BTK activity in RAMOS B cells (anti-IgM, FLIPR Calcium 6)). Conditions: EC80 anti-IgM, FLIPR calcium read.
Format: cell-based
How it was run: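 Ramos B cells were loaded with Calcium 6 dye containing 5 mM probenecid (2 h at 37 °C, then 15 min at 25 °C) and exposed to compound for 60 min at 25 °C. Anti-IgM was then added from a 4×EC80 stock, and calcium flux was recorded by FLIPR for 160 s; IC50 was derived.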

Row | IC50 [nM] | SMILES
1 | 10 to 100 | C=CC(=O)N1CCC2CCN(c3c(F)cc(C(N)=O)c4[nH]c(C)c(C)c34)CC21 (single isomer, unassigned) [Compound 32b, 4-(1-acryloyloctahydro-6H-pyrrolo[2,3-c]pyridin-6-yl)-5-fluoro-2,3-dimethyl-1H-indole-7-carboxamide]
2 | < 10 | C=CC(=O)N1CCc2c(cccc2-c2c(F)cc(C(N)=O)c3[nH]c(C)c(Cl)c23)C1 (single isomer, unassigned) [Compound 20b]

Same assay, conditions: Homo sapiens, Ramos, EC80 anti-IgM, FLIPR calcium read

Row | IC50 [nM] | SMILES
3 | 10 to 100 | C=CC(=O)N1CCC2CCN(c3c(F)cc(C(N)=O)c4[nH]c(C)c(Cl)c34)CC21 (single isomer, unassigned) [Compound 29a, 4-(1-acryloyloctahydro-6H-pyrrolo[2,3-c]pyridin-6-yl)-3-chloro-5-fluoro-2-methyl-1H-indole-7-carboxamide]
4 | < 10 | CC#CC(=O)N[C@H]1C[C@H](F)CN(c2c(F)cc(C(N)=O)c3[nH]c(C)c(C)c23)C1 [Compound 35, 4-((3S,5S)-3-(but-2-ynamido)-5-fluoropiperidin-1-yl)-5-fluoro-2,3-dimethyl-1H-indole-7-carboxamide]
5 | < 10 | CC#CC(=O)N[C@H]1C[C@@H](F)CN(c2c(F)cc(C(N)=O)c3[nH]c(C)c(C)c23)C1 [Compound 33, 4-((3S,5R)-3-(but-2-ynamido)-5-fluoropiperidin-1-yl)-5-fluoro-2,3-dimethyl-1H-indole-7-carboxamide]
6 | 10 to 100 | C=CC(=O)N1CCC2CCN(c3c(F)cc(C(N)=O)c4[nH]c(C)c(Cl)c34)CC21 (racemic) [Compound 29, 4-(1-acryloyloctahydro-6H-pyrrolo[2,3-c]pyridin-6-yl)-3-chloro-5-fluoro-2-methyl-1H-indole-7-carboxamide]
7 | 10 to 100 | CC#CC(=O)N1CCCC2CN(c3c(F)cc(C(N)=O)c4[nH]c(C)c(Cl)c34)CC21 (centres unmarked) [Compound 40, 4-(1-(but-2-ynoyl)octahydro-6H-pyrrolo[3,4-b]pyridin-6-yl)-3-chloro-5-fluoro-2-methyl-1H-indole-7-carboxamide]

Continued, compound first:

Row | SMILES | IC50 [nM]
8 | C=CC(=O)N1CCC[C@@H](c2c(F)cc(C(N)=O)c3[nH]c(C)c(Cl)c23)C1 [Compound 2a, (S)-4-(1-acryloylpiperidin-3-yl)-3-chloro-5-fluoro-2-methyl-1H-indole-7-carboxamide] | < 10
9 | C=CC(=O)N1CCC=C(c2c(F)cc(C(N)=O)c3[nH]c(C)c(Cl)c23)C1 [Compound 1, 4-(1-acryloyl-1,2,5,6-tetrahydropyridin-3-yl)-3-chloro-5-fluoro-2-methyl-1H-indole-7-carboxamide] | < 10
10 | C=CC(=O)N1CCC[C@H](c2c(F)c(F)c(C(N)=O)c3[nH]c(C)c(F)c23)C1 [Compound 6a, (R)-4-(1-acryloylpiperidin-3-yl)-3,5,6-trifluoro-2-methyl-1H-indole-7-carboxamide] | < 10
11 | C=CC(=O)N1CCc2c(-c3c(F)cc(C(N)=O)c4[nH]c(C)c(Cl)c34)cccc2C1C (racemic) [Compound 22a, 4-(2-acryloyl-1-methyl-1,2,3,4-tetrahydroisoquinolin-5-yl)-3-chloro-5-fluoro-2-methyl-1H-indole-7-carboxamide] | 10 to 100
12 | C=CC(=O)N1CCC[C@@H](c2c(F)c(F)c(C(N)=O)c3[nH]c(C)c(Cl)c23)C1 [Compound 16, (S)-4-(1-acryloylpiperidin-3-yl)-3-chloro-5,6-difluoro-2-methyl-1H-indole-7-carboxamide] | < 10
13 | C=CC(=O)N1CCC[C@@H](c2c(F)c(F)c(C(N)=O)c3[nH]c(C)c(F)c23)C1 [Compound 6b, (S)-4-(1-acryloylpiperidin-3-yl)-3,5,6-trifluoro-2-methyl-1H-indole-7-carboxamide] | < 10
14 | CC#CC(=O)N[C@H]1C[C@@H](F)CN(c2c(F)cc(C(N)=O)c3[nH]c(C)c(Cl)c23)C1 [Compound 27, 4-((3S,5R)-3-(but-2-ynamido)-5-fluoropiperidin-1-yl)-3-chloro-5-fluoro-2-methyl-1H-indole-7-carboxamide] | < 10
